Experimental findings from patent US20240131032A1, “AN ACTIVITY-GUIDED MAP OF ELECTROPHILE-CYSTEINE INTERACTIONS IN PRIMARY HUMAN IMMUNE CELLS” (The Scripps Research Institute, priority 2019, published 2024) are described below.

The target of this assay is T1, TMEM173 (Homo sapiens, UniProt Q86WV6, G230A/H232R/R293Q/R71H).
T1 construct: endogenous in cells; host or cells: THP-1 Lucia ISG cells
Briefly: ISRE-luciferase assay in THP-1 Lucia ISG cells. The format is cell-based. The note with it: 24 h. On the procedure:
FIG. 12A is a pie chart showing the fraction of protein targets of active compounds with available crystal structures containing the corresponding liganded cysteine residues. FIG. 12B is a computer-generated model of BPK-21 and BPK-25 interactions with C91 of stimulator of interferon genes protein (STING, or TMEM173). FIG. 12C is a graph of IRF response of THP1-Lucia™ ISG cells. THP-1 Lucia ISG cells were treated with DMSO or BPK-25 in the presence of viral dsDNA (2 μg/mL) for 24 h and the levels of IRF-induced Lucia luciferase were determined using QUANTI-Luc™. Cell viability was measured using CellTiter-Glo™ assay. Luminescence signals for test samples were normalized to DMSO-treated samples and reported as relative light units (RLU)±SEM; n=3/group. […] Relative expression of IL-6, IL-1β, and IP10 (CXCL10) genes was measured by qPCR and normalized to actin. […] GFP-positive cells were further analyzed for CD25 and CD69 expression levels by measuring mean fluorescence intensity of the PE- (PE-CD25) and APC-channels (APC-CD69). […]
THP-1 Lucia ISG cells were resuspended in low-serum growth media (2% FBS) at a density of 5×10^5 cells/mL and treated with BPK-25 or vehicle (DMSO) in the presence of viral dsDNA (2 μg/mL). […] For each cell type and assay, luminescence signals for test article samples were normalized to vehicle-treated samples and reported as relative light units (RLU).

T1 sequence (Q86WV6 whole entry R71H/G230A/H232R/R293Q): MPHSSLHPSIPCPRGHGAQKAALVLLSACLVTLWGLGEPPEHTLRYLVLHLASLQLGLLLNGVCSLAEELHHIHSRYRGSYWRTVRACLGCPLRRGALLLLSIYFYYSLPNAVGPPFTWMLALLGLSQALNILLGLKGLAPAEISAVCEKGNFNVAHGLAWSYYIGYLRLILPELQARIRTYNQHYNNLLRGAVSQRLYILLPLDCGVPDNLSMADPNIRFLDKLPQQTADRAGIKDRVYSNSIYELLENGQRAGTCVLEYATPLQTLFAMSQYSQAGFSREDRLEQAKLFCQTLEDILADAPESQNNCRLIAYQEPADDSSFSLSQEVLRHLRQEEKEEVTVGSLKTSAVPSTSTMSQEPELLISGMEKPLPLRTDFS

For `C=CC(=O)N(Cc1cccc(Cl)n1)c1ccc(C(=O)Nc2ccccc2)nc1` [BPK-25], the “TMEM173 activation in human monocyte cell line THP1” value was “inhibited TMEM173 activation”.
